Results reported in ChEMBL document CHEMBL2424579, “Quinazolin-4-one derivatives as selective histone deacetylase-6 inhibitors for the treatment of Alzheimer's disease” (J Med Chem, 2013).
Calls of active or inactive are those of the source. The rule behind the calls is not given here.

Experiments:
[1] = molecular target: T1, Histone deacetylase 1 (Homo sapiens, UniProt Q13547); experiment: Inhibition of human recombinant HDAC1 expressed in baculovirus/sf9 cells using RHKKAc as substrate at 1 uM
T1 sequence (Q13547 whole entry): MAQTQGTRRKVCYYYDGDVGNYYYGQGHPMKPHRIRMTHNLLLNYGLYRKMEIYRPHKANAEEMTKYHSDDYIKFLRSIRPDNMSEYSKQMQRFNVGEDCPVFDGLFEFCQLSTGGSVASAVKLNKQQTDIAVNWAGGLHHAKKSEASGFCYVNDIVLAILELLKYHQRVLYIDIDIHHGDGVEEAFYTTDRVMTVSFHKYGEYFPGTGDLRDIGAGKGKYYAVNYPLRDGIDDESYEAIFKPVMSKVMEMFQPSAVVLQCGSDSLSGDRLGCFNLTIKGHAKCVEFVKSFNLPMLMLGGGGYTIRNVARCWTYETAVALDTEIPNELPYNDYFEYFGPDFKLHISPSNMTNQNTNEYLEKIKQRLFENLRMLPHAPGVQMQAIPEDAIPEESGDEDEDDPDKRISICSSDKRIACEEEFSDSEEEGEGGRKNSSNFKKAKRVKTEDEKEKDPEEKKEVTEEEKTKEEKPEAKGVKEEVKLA

[2] = molecular target: Protein deacetylase HDAC6 (Homo sapiens) (UniProt Q9UBN7); experiment: Inhibition of human recombinant HDAC6 expressed in baculovirus/sf9 cells using RHKKAc as substrate at 1 uM
[3] = molecular target: Histone deacetylase 11 (Homo sapiens) (UniProt Q96DB2); experiment: Inhibition of human recombinant HDAC11 expressed in baculovirus/sf9 cells using RHKKAc as substrate at 1 uM
[4] = molecular target: Histone deacetylase 8 (Homo sapiens) (UniProt Q9BY41); experiment: Inhibition of human recombinant HDAC8 expressed in baculovirus/sf9 cells using RHKAcKAc as substrate at 1 uM
[5] = molecular target: T2, Histone deacetylase 2 (Homo sapiens, UniProt Q92769); experiment: Inhibition of human recombinant HDAC2 expressed in baculovirus/sf9 cells using RHKKAc as substrate at 1 uM
T2 sequence (Q92769 whole entry): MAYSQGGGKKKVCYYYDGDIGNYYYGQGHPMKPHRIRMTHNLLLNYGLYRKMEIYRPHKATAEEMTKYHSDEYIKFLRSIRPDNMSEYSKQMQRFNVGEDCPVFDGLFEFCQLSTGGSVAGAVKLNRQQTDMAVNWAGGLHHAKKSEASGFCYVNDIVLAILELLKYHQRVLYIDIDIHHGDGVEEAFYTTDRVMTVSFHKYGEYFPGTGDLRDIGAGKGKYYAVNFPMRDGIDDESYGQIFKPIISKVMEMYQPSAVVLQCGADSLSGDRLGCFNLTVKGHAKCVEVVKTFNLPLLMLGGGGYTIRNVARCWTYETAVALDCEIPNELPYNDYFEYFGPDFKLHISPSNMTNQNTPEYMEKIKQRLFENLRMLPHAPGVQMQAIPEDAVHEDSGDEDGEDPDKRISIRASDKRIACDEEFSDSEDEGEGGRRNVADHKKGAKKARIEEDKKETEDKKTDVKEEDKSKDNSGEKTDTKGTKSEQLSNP

[6] = molecular target: Polyamine deacetylase HDAC10 (Homo sapiens) (UniProt Q969S8); experiment: Inhibition of human recombinant HDAC10 expressed in baculovirus/sf9 cells using RHKKAc as substrate at 1 uM
[7] = system: PC-12; experiment: Inhibition of HDAC6 in rat PC12 cells assessed as induction of alpha-tubulin acetylation at 10 uM after 48 hrs by Western blotting analysis; assay type: cell-based
[8] = molecular target: Cytochrome P450 2C9 (Homo sapiens, UniProt P11712); experiment: Inhibition of CYP2C9 (unknown origin) using Vivid OOMR as substrate; assay type: ADME
Sequence of Cytochrome P450 2C9 (P11712 whole entry): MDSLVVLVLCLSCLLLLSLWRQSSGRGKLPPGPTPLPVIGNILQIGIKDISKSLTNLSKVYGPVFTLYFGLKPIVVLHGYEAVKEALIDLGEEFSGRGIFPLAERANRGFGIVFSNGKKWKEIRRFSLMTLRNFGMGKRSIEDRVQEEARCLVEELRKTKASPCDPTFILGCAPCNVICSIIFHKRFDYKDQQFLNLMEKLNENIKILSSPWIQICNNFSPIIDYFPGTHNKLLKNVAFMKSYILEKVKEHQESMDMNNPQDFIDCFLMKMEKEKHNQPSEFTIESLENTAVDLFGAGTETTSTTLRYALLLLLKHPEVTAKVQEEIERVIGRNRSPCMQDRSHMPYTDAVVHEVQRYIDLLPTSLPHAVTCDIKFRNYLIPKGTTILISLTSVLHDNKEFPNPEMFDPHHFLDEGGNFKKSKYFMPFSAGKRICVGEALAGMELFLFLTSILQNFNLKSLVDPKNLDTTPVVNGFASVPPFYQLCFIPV

[9] = molecular target: Cytochrome P450 1A2 (Homo sapiens, UniProt P05177); experiment: Inhibition of CYP1A2 (unknown origin) using 3-cyano-7-ethoxycoumarin as substrate; assay type: ADME
Sequence of Cytochrome P450 1A2 (P05177 whole entry): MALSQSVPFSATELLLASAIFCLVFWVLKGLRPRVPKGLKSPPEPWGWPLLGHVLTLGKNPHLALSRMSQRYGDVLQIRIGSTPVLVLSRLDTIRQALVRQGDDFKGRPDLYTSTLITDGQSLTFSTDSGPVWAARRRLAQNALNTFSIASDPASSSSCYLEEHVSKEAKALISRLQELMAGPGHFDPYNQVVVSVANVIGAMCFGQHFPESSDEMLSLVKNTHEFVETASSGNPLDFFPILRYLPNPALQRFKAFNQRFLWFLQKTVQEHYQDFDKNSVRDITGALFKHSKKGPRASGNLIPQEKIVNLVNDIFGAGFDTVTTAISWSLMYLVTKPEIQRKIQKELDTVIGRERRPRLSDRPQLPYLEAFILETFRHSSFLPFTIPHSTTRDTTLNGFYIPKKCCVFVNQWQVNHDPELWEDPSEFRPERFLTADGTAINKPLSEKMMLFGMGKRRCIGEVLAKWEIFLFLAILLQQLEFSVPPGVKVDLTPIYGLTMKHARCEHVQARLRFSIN

[10] = molecular target: Cytochrome P450 3A4 (Homo sapiens, UniProt P08684); experiment: Inhibition of CYP3A4 (unknown origin) using Vivid BOMR as substrate; assay type: ADME
Sequence of Cytochrome P450 3A4 (P08684 whole entry): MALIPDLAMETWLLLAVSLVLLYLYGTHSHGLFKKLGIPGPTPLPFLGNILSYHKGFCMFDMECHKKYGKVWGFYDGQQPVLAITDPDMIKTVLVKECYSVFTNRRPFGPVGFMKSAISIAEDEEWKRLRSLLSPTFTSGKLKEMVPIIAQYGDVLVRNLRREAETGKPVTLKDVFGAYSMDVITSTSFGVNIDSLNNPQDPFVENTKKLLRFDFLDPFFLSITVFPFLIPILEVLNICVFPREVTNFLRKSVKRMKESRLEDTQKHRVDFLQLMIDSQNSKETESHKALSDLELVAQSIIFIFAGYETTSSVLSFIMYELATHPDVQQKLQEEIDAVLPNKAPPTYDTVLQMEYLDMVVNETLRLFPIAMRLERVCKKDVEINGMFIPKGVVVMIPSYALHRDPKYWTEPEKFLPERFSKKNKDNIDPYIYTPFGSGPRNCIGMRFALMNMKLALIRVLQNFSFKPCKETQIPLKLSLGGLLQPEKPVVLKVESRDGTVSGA

[11] = system: SH-SY5Y; experiment: Increase of synaptic activity in human SH-SY5Y cells after 5 days by fluorescence assay; assay type: functional, cell-based; conditions: 120 h
[12] = molecular target: T2, Histone deacetylase 2; experiment: Inhibition of human recombinant HDAC2 expressed in baculovirus/sf9 cells using RHKKAc as substrate
[13] = system: SH-SY5Y; experiment: Induction of neurite outgrowth in human SH-SY5Y cells after 5 days; assay type: functional, cell-based; conditions: 120 h
[14] = system: PC-12; experiment: Induction of neurite outgrowth in rat PC12 cells at 10 uM after 5 days; assay type: functional, cell-based
[15] = molecular target: T3, Histone deacetylase 11 (Homo sapiens, UniProt Q96DB2); experiment: Inhibition of human recombinant HDAC11 expressed in baculovirus/sf9 cells using RHKKAc as substrate
T3 sequence (Q96DB2 whole entry): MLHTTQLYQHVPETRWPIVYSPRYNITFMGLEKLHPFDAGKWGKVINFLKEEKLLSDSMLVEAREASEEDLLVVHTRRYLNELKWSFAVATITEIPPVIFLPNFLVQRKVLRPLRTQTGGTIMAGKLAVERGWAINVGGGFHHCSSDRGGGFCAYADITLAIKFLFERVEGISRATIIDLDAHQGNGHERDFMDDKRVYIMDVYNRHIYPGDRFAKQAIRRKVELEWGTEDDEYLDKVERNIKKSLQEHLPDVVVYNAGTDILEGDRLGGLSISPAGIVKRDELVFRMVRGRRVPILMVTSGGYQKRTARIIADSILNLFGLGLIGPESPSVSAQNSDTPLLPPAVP

[16] = system: SH-SY5Y; experiment: Induction of neurite outgrowth in human SH-SY5Y cells at 10 uM after 5 days; assay type: functional, cell-based
[17] = molecular target: T4, Protein deacetylase HDAC6 (Homo sapiens, UniProt Q9UBN7); experiment: Inhibition of human recombinant HDAC6 expressed in baculovirus/sf9 cells using RHKKAc as substrate
T4 sequence (Q9UBN7 whole entry): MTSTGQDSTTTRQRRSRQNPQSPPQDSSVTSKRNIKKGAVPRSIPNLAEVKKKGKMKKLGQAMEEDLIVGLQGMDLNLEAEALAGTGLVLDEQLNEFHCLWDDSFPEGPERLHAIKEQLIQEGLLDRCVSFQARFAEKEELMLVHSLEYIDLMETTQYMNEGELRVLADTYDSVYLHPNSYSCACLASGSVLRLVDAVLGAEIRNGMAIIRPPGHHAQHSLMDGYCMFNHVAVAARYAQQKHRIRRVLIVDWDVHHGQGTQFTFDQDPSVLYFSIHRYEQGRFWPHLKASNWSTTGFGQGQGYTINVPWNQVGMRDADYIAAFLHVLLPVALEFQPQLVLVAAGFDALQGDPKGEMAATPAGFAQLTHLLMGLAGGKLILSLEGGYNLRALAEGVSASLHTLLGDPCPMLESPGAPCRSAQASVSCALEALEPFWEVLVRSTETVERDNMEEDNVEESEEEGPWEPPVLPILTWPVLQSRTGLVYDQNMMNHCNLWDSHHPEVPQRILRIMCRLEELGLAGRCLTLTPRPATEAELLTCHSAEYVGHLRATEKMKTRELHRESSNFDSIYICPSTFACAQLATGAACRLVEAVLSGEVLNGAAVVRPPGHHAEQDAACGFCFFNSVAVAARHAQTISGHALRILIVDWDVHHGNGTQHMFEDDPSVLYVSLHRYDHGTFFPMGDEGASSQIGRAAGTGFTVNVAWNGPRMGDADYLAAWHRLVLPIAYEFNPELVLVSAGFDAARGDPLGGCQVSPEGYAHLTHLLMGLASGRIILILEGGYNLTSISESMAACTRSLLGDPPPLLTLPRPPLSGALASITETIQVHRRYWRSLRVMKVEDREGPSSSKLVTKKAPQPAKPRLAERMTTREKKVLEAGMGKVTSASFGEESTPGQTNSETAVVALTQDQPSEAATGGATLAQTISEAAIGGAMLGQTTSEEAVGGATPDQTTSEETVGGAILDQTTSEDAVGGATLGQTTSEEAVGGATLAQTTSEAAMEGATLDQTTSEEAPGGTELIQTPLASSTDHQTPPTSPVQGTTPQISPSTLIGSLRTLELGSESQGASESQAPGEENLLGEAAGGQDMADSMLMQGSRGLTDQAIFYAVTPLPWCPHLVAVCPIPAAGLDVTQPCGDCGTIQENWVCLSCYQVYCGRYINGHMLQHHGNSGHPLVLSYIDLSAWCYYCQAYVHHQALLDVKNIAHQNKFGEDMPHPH

[18] = system: PC-12; experiment: Cytotoxicity against rat PC12 cells at 25 uM; assay type: cell-based; conditions: pc-12, 25 µM
[19] = system: Mus musculus; experiment: Antialzheimer activity in wild type learning-impaired Balb/c mouse model with hippocampal lesions at 10 mg/kg, ip administered for 30 days by rotarod test relative to vehicle-treated control; conditions: Hippocampus, TDE = time-dependent effect
[20] = molecular target: T1, Histone deacetylase 1; experiment: Inhibition of human recombinant HDAC1 expressed in baculovirus/sf9 cells using RHKKAc as substrate
[21] = system: Vero; experiment: Cytotoxicity against african green monkey Vero cells at 25 uM; assay type: cell-based; conditions: chlorocebus sabaeus
[22] = molecular target: Poly [ADP-ribose] polymerase 1 (Homo sapiens) (UniProt P09874); experiment: Inhibition of PARP1 (unknown origin) up to 25 uM
Sequence of Poly [ADP-ribose] polymerase 1 (Homo sapiens) (P09874 whole entry): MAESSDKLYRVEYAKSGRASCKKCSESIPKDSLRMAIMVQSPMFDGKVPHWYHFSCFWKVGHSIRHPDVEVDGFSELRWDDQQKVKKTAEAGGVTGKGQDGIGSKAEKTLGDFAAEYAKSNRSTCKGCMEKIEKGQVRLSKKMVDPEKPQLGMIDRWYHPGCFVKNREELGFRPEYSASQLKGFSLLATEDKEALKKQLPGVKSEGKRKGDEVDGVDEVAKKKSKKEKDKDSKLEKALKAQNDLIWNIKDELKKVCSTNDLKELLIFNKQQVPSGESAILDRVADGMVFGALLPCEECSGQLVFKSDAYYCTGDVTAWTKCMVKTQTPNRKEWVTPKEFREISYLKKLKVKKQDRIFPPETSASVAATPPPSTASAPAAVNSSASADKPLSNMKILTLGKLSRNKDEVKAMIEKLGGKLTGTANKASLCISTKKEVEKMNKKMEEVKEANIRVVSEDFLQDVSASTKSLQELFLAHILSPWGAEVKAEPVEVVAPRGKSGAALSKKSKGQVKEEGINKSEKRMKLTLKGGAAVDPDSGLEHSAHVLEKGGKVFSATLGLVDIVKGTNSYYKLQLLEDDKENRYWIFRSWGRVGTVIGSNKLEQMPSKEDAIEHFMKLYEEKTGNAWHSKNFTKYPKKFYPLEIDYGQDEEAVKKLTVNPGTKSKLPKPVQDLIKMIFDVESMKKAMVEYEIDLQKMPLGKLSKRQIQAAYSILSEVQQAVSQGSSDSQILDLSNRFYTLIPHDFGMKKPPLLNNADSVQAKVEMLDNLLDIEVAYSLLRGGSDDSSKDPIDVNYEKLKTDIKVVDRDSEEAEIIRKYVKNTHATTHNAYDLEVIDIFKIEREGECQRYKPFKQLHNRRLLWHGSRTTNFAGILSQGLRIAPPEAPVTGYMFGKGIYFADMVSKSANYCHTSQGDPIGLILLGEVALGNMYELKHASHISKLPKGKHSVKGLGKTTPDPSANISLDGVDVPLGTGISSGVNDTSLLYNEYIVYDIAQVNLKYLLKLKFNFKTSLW

[23] = system: PC-12; experiment: Induction iof GAP-43 protein expression in rat PC12 cells at 0.1 uM after 48 hrs by Western blotting analysis; assay type: functional, cell-based
[24] = molecular target: Cytochrome P450 2D6 (Homo sapiens, UniProt P10635); experiment: Inhibition of CYP2D6 (unknown origin) using 3-cyano-7-ethoxycoumarin as substrate; assay type: ADME
Sequence of Cytochrome P450 2D6 (P10635 whole entry): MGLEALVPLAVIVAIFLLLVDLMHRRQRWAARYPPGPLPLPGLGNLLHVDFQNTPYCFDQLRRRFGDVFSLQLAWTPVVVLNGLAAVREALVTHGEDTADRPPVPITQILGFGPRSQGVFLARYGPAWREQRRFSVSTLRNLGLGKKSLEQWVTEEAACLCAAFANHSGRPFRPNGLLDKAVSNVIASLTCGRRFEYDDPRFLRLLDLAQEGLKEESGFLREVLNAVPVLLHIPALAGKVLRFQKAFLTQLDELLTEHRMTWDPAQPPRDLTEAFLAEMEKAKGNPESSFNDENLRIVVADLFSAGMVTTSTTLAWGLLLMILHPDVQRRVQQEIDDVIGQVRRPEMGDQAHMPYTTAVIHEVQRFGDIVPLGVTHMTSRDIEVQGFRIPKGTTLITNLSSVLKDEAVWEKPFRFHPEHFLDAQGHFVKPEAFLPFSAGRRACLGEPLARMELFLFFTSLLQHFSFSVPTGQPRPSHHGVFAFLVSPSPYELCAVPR

[25] = system: PC-12; experiment: Inhibition of HDAC6 in rat PC12 cells assessed as acetylation of histone H3 at 10 uM after 48 hrs by Western blotting analysis; assay type: cell-based
[26] = Cytotoxicity against human SH-SY5Y cells at 25 uM; assay type: cell-based
[27] = system: Mus musculus; experiment: Antialzheimer activity in wild type learning-impaired Balb/c mouse model with hippocampal lesions assessed as increase in acetylated alpha-tubulin level in hippocampus region at 10 mg/kg, ip administered for 30 days by rotarod test
[28] = molecular target: Amyloid-beta precursor protein (Homo sapiens, UniProt P05067); experiment: Inhibition of amyloid beta aggregation (unknown origin) after 4 hrs by thioflavin S assay in absence of Zn2+
[29] = system: PC-12; experiment: Induction of neurite outgrowth in rat PC12 cells after 5 days; assay type: functional, cell-based; conditions: PC-12, 120 h
[30] = system: PC-12; experiment: Increase of synaptic activity in rat PC12 cells after 5 days by fluorescence assay; assay type: functional, cell-based; conditions: PC-12, 120 h
[31] = molecular target: Cytochrome P450 2C19 (Homo sapiens, UniProt P33261); experiment: Inhibition of CYP2C19 (unknown origin) using 3-cyano-7-ethoxycoumarin as substrate; assay type: ADME
Sequence of Cytochrome P450 2C19 (P33261 whole entry): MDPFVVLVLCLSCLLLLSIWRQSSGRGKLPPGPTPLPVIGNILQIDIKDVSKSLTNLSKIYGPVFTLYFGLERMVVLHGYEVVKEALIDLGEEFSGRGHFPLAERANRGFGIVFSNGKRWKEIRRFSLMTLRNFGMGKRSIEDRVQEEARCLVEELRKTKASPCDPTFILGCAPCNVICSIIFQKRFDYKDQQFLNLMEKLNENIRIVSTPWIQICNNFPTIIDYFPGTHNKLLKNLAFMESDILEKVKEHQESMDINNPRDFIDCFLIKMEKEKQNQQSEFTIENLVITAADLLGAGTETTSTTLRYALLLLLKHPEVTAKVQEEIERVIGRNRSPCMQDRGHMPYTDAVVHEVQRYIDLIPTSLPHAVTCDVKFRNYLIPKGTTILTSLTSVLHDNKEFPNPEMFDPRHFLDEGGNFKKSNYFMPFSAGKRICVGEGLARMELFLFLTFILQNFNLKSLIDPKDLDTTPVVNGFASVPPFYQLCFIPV

[32] = molecular target: T5, Histone deacetylase 8 (Homo sapiens, UniProt Q9BY41); experiment: Inhibition of human recombinant HDAC8 expressed in baculovirus/sf9 cells using RHKAcKAc as substrate
T5 sequence (Q9BY41 whole entry): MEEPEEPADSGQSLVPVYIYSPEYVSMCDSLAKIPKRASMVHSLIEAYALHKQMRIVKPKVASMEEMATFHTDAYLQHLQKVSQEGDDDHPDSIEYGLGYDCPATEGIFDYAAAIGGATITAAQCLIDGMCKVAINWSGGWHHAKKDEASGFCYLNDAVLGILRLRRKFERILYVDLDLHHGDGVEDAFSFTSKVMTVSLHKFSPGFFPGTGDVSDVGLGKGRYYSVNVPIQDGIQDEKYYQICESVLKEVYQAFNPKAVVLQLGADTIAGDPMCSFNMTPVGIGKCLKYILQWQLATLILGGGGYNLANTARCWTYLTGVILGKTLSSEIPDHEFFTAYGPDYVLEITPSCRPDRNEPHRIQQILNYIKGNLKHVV

[33] = system: PC-12; experiment: Induction iof GAP-43 protein expression in rat PC12 cells after 48 hrs by Western blotting analysis; assay type: functional, cell-based
[34] = system: PC-12; experiment: Inhibition of HDAC6 in rat PC12 cells assessed as induction of alpha-tubulin acetylation after 48 hrs by Western blotting analysis; assay type: cell-based

SMILES	IC50 [8] [µM]	IC50 [9] [µM]	IC50 [10] [µM]	EC50 [11] [µM]	IC50 [12] [µM]	EC50 [13] [µM]	Activity [14]	IC50 [15] [µM]	Activity [16]	IC50 [17] [µM]	Activity [18]	Activity [21]	inhibition [22]	IC50 [24] [µM]	Activity [26]	EC50 [29] [µM]	EC50 [30] [µM]	IC50 [31] [µM]	IC50 [32] [µM]	Activity [33]	other results
CCc1nc2c(-c3ccc(C(=O)NO)cc3)cccc2c(=O)n1CCc1ccccc1																					inhibition [1]: inactive; inhibition [2]: 50%; inhibition [3]: inactive; inhibition [4]: 50%; inhibition [5]: inactive; inhibition [6]: inactive
Cc1nc2cc(/C=C/C(=O)NO)ccc2c(=O)n1CCc1ccccc1	9.1	> 10	6.5	6.8	6.45	9.2	Active	4.08	Active	0.029	Non-toxic	Non-toxic	inactive	> 10	Non-toxic	7.3	6.5	> 10	1.75	Dose-dependent effect	inhibition [7]: Active; Activity [19]: tde; IC50 [20]: 1.88 µM; Activity [23]: Active; inhibition [25]: Active; Activity [27]: Active; IC50 [28]: > 50 µM
CCc1nc2c(Cc3ccc(C(=O)NO)cc3)cccc2c(=O)n1CCc1ccccc1	2.1	> 10	0.1	8.3	> 10	8.1	Active	37.1	Active	0.079	Non-toxic	Non-toxic	inactive	> 10	Non-toxic	6.2	6.7	3.3	0.282	Dose-dependent effect	inhibition [34]: Dose-dependent effect
